Legend:
[1] = target: T1, aryl hydrocarbon receptor (AhR) (Homo sapiens, UniProt P35869); assay: AhR reporter gene assay (aryl hydrocarbon receptor antagonist activity, DRE-Luc HepG2 cells, TCDD-stimulated luciferase); assay type: cell-based
T1 construct: DRE-Luc HepG2 cells subcultured in a 225 cm^2 flask; endogenous in cells; host or cells: HepG2 (ATCC), stably transfected with the reporter hCYP1A1/pGL4.27 (DRE-Luc HepG2)
T1 sequence (P35869 11-848): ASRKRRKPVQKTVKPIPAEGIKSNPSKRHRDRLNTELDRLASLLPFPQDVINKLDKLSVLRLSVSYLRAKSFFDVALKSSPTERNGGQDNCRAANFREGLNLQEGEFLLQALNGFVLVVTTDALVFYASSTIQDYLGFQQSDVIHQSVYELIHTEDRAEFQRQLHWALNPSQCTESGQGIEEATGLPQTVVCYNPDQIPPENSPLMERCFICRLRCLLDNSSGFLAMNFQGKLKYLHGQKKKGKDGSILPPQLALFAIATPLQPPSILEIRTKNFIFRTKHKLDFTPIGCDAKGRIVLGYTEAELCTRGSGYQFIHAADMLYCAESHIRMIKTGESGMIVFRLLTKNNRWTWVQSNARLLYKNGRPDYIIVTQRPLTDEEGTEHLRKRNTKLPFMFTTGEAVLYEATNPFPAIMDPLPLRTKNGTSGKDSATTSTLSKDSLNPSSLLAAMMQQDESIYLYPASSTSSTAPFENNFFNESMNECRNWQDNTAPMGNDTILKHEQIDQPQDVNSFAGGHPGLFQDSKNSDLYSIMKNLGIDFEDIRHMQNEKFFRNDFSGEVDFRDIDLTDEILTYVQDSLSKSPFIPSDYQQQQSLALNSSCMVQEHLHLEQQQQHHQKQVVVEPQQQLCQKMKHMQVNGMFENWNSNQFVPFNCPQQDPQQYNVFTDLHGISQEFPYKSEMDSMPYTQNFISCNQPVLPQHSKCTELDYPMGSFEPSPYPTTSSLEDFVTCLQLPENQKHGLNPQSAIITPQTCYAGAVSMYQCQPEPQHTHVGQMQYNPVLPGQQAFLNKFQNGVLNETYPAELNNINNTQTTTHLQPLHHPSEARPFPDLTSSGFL
Method: Test Example 1 (Aryl Hydrocarbon Receptor Antagonist Activity)
An expression vector, hCYP1A1/pGL4.27 was introduced into HepG2 cells (derived from American Type Culture Collection (ATCC)) that were seeded in 6-well plates (#3810-006 (Iwaki)) at 1.2×10^6 cells/well, using Lipofectamine 3000 (#100022050 (Invitrogen)). Referring to Garrion P M et al., Fundam Appl Toxicol, 30, 194 (1996), the vector hCYP1A1/pGL4.27 incorporated the human CYP1A1 promotor region including dioxin responsive element (DRE) region of the AhR binding region into the XhoI-BglII restriction enzyme site of pGL4.27 (#E8451 (Promega)). After 24 hours, medium-1 was replaced, and after 48 hours, the medium-1 containing hygromycin B (200 to 1000 μg/mL) was subjected to drug treatment. Culturing using the medium containing hygromycin B was continued for about 1 month to clone 24 clones showing drug resistance. A cell line showing high reporter activity was selected (DRE-Luc HepG2) from drug resistant lines using as an indicator luciferase activity (Dual-Glo Luciferase substrate, #E297A (Promega)) relative to an AhR agonist, 2,3,7,8-tetrachlorodibenzo-p-dioxin (TCDD) (#ED-901-B (CIL.)).
DRE-Luc HepG2 cells subcultured in a 225 cm^2 flask (#11-0005 (Iwaki)) were washed with PBS (#1419-144 (Gibco), Lot: 1896207), and thereto was added 8 mL of Trypsin-EDTA (0.05%) (#25300-054 (Gibco)). Thereafter, an excessive liquid was removed from the mixture, and the cells were stood at room temperature for 5 minutes. Thereto was added 10 mL of medium-2, the cells were recovered through a cell strainer (#352350 (Falcon), 70 μm), and the number of cells were then counted using a hemocytometer. A cell suspension was prepared at 3×10^5 cells/mL, 100 μL/well of the cell suspension was seeded into a 96-well white plate (#136101, F96 Microwell (Nunc)), and the cells were then cultured in a CO2 incubator (5% CO2, 37° C.). After 24 hours, the medium was aspirated, and thereto was added 100 μL of an assay medium solution including the compound of the present invention, and the cells were cultured in the CO2 incubator (5% CO2, 37° C.). After 24 hours, 11 μL of an assay medium solution including 5×10^−10 M TCDD (#ED-901-B (CIL.)) was added thereto and the cells were cultured in the CO2 incubator (5% CO2, 37° C.). After 24 hours, 50 μL of a reaction substrate (#E253B, Steady-Glo Luciferase substrate (Promega)) for Firefly Luciferase enzyme reaction was added to each well, and after 5 minute-shaking, the light emission intensity was measured with Wallac ARVO 1420sx (PerkinElmer).

[2] = tested on: immortalized megakaryocyte line (SeV2-MKCL); assay: Platelet production: static culturing of immortalized megakaryocyte line; assay type: cell-based; settings: compound final concentration 0.1 μM, static culturing 6 to 7 days, control (DMSO) set to 1; platelets = CD41, CD42b and CD42a-positive cells
Method: Test Example 2 (Platelet Production: Static Culturing)
The immortalized megakaryocyte line (SeV2-MKCL) obtained according to the method described in WO 2016/204256 was washed twice with D-PBS(−) and then cultured in medium not containing doxycycline to terminate forced expression. Culturing was implemented by seeding the cells at 1 mL/well in a 24-well plate (#662160 (Greiner Rio-One)) at a seeding density of 1×10^5 cells/mL followed by static culturing in the medium indicated below.
The medium was obtained by adding the following components to IMDM serving as the basal medium (concentrations indicate final concentrations).
Culturing was implemented under conditions of 37° C. and 5% CO2. At the same time, the compound of the present invention (final concentration 0.1 μM) or DMSO (control) was added and cultured for 6 to 7 days. Thereafter, the number of platelets (CD41, CD42b, and CD42a-positive cells) was measured. The measurement method was as shown below. The same procedure was performed with the control.
A portion of the culture supernatant was harvested 6 to 7 days after culturing to terminate gene expression, and suspended with the following antibodies to stain them. eFluor 450-labeled anti-CD42a antibody (#48-0428-42 (eBioscience)) PE-labeled anti-CD42b antibody (#303906 (BioLegend)) APC-labeled anti-CD41 antibody (#303710 (BioLegend)) The number of platelets was counted using FACSVerse manufactured by BD 30 minutes after the stain reaction. In the measurement of the number of platelets, the number of cells was corrected using Flow-count beads (#7547053 (Beckman Coulter)).
The number of platelets produced from one megakaryocyte cell was calculated based on the number of platelets in the sample obtained by the FACS measurement, and the result was defined as platelet production efficiency (PLT/MK) and used for evaluation of drug efficacy of the compound. In addition, the specific activity at the time when the platelet production efficiency of the control was set to 1 was indicated as fold increase.

SMILES	IC50 [1]	Static (vs veh): fold increase of platelet production efficiency (PLT/MK) [2]
CC1(C)COc2nc3c(NCCc4ccc(O)c(-c5ccccc5)c4)nc(-c4cncc(F)c4)nc3n21 [Example 1, 4-[2-[[2-(5-fluoropyridin-3-yl)-8,8-dimethyl-7H-purino[8,9-b][1,3]oxazol-4-yl]amino]ethyl]J-2-phenylphenol]	4.4 nM	6.5
CC1(C)COc2nc3c(NCCc4ccc(O)c(-c5ccccc5F)c4)nc(-c4cncc(F)c4)nc3n21 [Example 2, 2-(2-fluorophenyl)-4-[2-[[2-(5-fluoropyridin-3-yl)-8,8-dimethyl-7H-purino[8,9-b][1,3]oxazol-4-yl]amino]ethyl]phenol]	9.5 nM	5.6
CC1(C)COc2nc3c(NCCc4ccc(O)c(-c5cccc(F)c5)c4)nc(-c4cncc(F)c4)nc3n21 [Example 3]	2.9 nM	6.8
CC1(C)COc2nc3c(NCCc4ccc(O)c(-c5ccc(F)cc5)c4)nc(-c4cncc(F)c4)nc3n21 [Example 4]	5 nM	6.7
CC1(C)COc2nc3c(NCCc4ccc(O)c(-c5ccc(O)cc5)c4)nc(-c4cncc(F)c4)nc3n21 [Example 19, 4-[2-[[2-(5-fluoropyridin-3-yl)-8,8-dimethyl-7H-purino[8,9-b][1,3]oxazol-4-yl]amino]ethyl]-2-(4-hydroxyphenyl)phenol]		2.8
Cc1cc(CCNc2nc(-c3cncc(F)c3)nc3c2nc2n3C(C)(C)CO2)ccc1O [Example 51]		2.6
CC1(C)CSc2nc3c(NCCc4ccc(O)c(-c5cncc(F)c5)c4)nc(-c4cncc(F)c4)nc3n21 [Example 70]	4.6 nM	
CC1(C)COc2nc3c(NCCc4ccc(O)c(-c5cncc(C#N)c5)c4)nc(-c4cncc(F)c4)nc3n21 [Example 75]		2.7
CC1(C)COc2nc3c(NCCc4ccc(O)cc4)nc(-c4cncc(F)c4)nc3n21 [Example 80]		3.4
CC1(C)COc2nc3c(NCCc4c[nH]c5ccccc45)nc(-c4cncc(F)c4)nc3n21 [Example 82]		5.0
Cc1cncc(-c2nc(NCCc3c[nH]c4ccccc34)c3nc4n(c3n2)C(C)(C)CO4)c1 [Example 83]		5.8
Fc1cncc(-c2nc(NCCc3c[nH]c4ccccc34)c3nc4n(c3n2)CCCO4)c1 [Example 84]		13
CC1(C)COc2nc3c(NCCc4c[nH]c5ccccc45)nc(-c4ccc(F)c(F)c4)nc3n21 [Example 88]		3.1
CC1(C)CCOc2nc3c(NCCc4c[nH]c5ccccc45)nc(-c4cncc(F)c4)nc3n21 [Example 89]		5.0
CC1(C)CCOc2nc3c(NCCc4ccc(O)cc4)nc(-c4cncc(F)c4)nc3n21 [Example 90]		2.6
CC1(C)CSc2nc3c(NCCc4c[nH]c5ccccc45)nc(-c4cncc(F)c4)nc3n21 [Example 95]		2.4

SMILES	IC50 [1]	Static (vs veh): fold increase of platelet production efficiency (PLT/MK) [2]
CC1(C)CSc2nc3c(NCCc4ccc(O)cc4)nc(-c4cncc(F)c4)nc3n21 [Example 97]	19 nM	
CC1(C)COc2nc3c(NCCc4c[nH]c5ccccc45)nc(-c4ccnc(F)c4)nc3n21 [Example 100]		3.5
C[C@@H]1CSc2nc3c(NCCc4c[nH]c5ccccc45)nc(-c4cncc(F)c4)nc3n21 [Example 102]		4.5
CC1(C)COc2nc3c(NCCc4ccc5[nH]ccc5c4)nc(-c4cncc(F)c4)nc3n21 [Example 103]		3.1
Cc1[nH]c2ccccc2c1CCNc1nc(-c2cncc(F)c2)nc2c1nc1n2C(C)(C)CO1 [Example 104]		4.6
Fc1cncc(-c2nc(NCCc3c[nH]c4ccccc34)c3nc4n(c3n2)CCS4)c1 [Example 105]		8.2
C[C@H]1CSc2nc3c(NCCc4c[nH]c5ccccc45)nc(-c4cncc(F)c4)nc3n21 [Example 106]		6.9
Fc1cncc(-c2nc(NCCc3c[nH]c4ccccc34)c3nc4n(c3n2)CCCCS4)c1 [Example 107]		7.9
CC1(C)COc2nc3c(NCCc4c[nH]c5ccccc45)nc(-c4ccccc4F)nc3n21 [Example 113]		2.5
CC1(C)COc2nc3c(NCCc4c[nH]c5ccccc45)nc(-c4ccc(F)cc4)nc3n21 [Example 114]		2.2
CC1(C)COc2nc3c(NCCc4c[nH]c5ccccc45)nc(-c4ccccc4)nc3n21 [Example 116]		2.5
Oc1ccc(CCNc2nc(-c3cncc(F)c3)nc3c2nc2n3CCS2)cc1-c1ccccc1F [Example 142]	0.89 nM	
Oc1ccc(CCNc2nc(-c3cncc(F)c3)nc3c2nc2n3CCCCS2)cc1-c1ccccc1F [Example 143]	0.6 nM	
Oc1ccc(CCNc2nc(-c3cncc(F)c3)nc3c2nc2n3CCCO2)cc1-c1ccccc1F [Example 144]	4.3 nM	
Oc1ccc(CCNc2nc(-c3cncc(F)c3)nc3c2nc2n3CCCS2)cc1-c1ccccc1F [Example 145]	1.3 nM	

Reference: US11932657B2, “Heterocyclic compound” (priority 2018, dated 2024)
